Like-named read-outs stand apart in the source and are kept apart here.
What was measured:
large crabgrass [1] = experiment: Test C pre-/postemergence herbicide test; type: in vivo, Digitaria sanguinalis
How it was run: (§1)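 Visual ratings on a 0–100 scale (100 = complete control) made versus untreated controls after 12 to 14 greenhouse days. Test chemicals, formulated in surfactant-containing non-phytotoxic solvent, applied preemergence to planted seeds or postemergence to 1- to 4-leaf plants (2 to 18 cm).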

johnsongrass = experiment: Test C pre-/postemergence herbicide test; type: in vivo, Sorghum halepense
How it was run: as §1

redroot pigweed = experiment: Test A pre-/postemergence herbicide test; type: in vivo, Amaranthus retroflexus; details: for pest or weed control at 500 g/ha / pest or weed control at 2000 g/ha: Amaranthus retroflexus, 240 h
How it was run: (§2)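 Visual injury scores on a 0–100 scale (100 = complete control) taken about ten days post-treatment in greenhouse against untreated controls; dash means no result. Treatments: preemergence soil spray and postemergence spray to runoff on one- to two-leaf plants 2 to 10 cm tall, surfactant-containing formulation.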

rice = experiment: Test B pre-/postemergence herbicide test; type: in vivo, Oryza sativa
How it was run: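 Formulation: non-phytotoxic solvent mix with surfactant. Timing: preemergence on seed and postemergence on 2–18 cm plants, applied concurrently. Readout after 13–15 d greenhouse: visual 0–100 control rating against controls.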

corn = experiment: Test C pre-/postemergence herbicide test; type: in vivo, Zea mays
How it was run: as §1

eastern black nightshade = experiment: Test C pre-/postemergence herbicide test; type: in vivo, Solanum ptycanthum
How it was run: as §1

large crabgrass [2] = experiment: Test A pre-/postemergence herbicide test; type: in vivo, Digitaria sanguinalis; details: for pest or weed control at 500 g/ha / pest or weed control at 2000 g/ha: Digitaria sanguinalis, 240 h
How it was run: as §2

[3] = 125 g ai/ha, scale 0 (no effect) to 100 (complete control), visual, 12 to 14 days, preemergence
[4] = 250 g ai/ha, scale 0 to 100 (0 no effect, 100 complete control), visual, 12 to 14 days, preemergence
[5] = Preemergence, 500 g ai/ha, scale 0 to 100, 0 no effect, 100 complete control
[6] = Postemergence, 500 g ai/ha, 0 to 100 scale, 0 no effect, 100 complete control
[7] = Postemergence, 2000 g ai/ha, 0 to 100 scale, 0 no effect, 100 complete control
[8] = Preemergence, 500 g ai/ha, visual rating, 0 to 100 scale (0 no effect, 100 complete control)
[9] = Preemergence, 2000 g ai/ha, 0 to 100 scale, 0 no effect, 100 complete control

CCN1N=C(C(C)(C)C)CC1C(=O)Nc1cc(C(=O)N(C)C)ccc1F (stereo not drawn) [Compound 268, N-[5-[(dimethylamino)carbonyl]-2-fluorophenyl]-3-(1,1-dimethylethyl)-1-ethyl-4,5-dihydro-1H-pyrazole-5-carboxamide]
pest or weed control at 62 g/ha (large crabgrass [1]; Digitaria sanguinalis, pre-emergence, 312 h, 62 g ai/ha, preemergence, scale 0 to 100, read-out: Plant response rating, Crabgrass, Large): 90% | pest or weed control at 125 g/ha (large crabgrass [1]; Digitaria sanguinalis, pre-emergence, 312 h, 125 g ai/ha, scale 0 (no effect) to 100 (complete control), visual, 12 to 14 days, read-out: Plant response rating, Crabgrass, Large): 95% | pest or weed control at 250 g/ha (large crabgrass [1]; Digitaria sanguinalis, pre-emergence, 312 h, 250 g ai/ha, scale 0-100, read-out: Plant response rating, Crabgrass, Large): 100% | pest or weed control at 500 g/ha (large crabgrass [1]; Digitaria sanguinalis, pre-emergence, 312 h, 500 g ai/ha, scale 0 to 100 (0 no effect, 100 complete control), visual, 12 to 14 days, read-out: Plant response rating, Crabgrass, Large): 100% | pest or weed control at 62 g/ha (johnsongrass; Sorghum halepense, pre-emergence, 62 g ai/ha, preemergence, scale 0 to 100, read-out: Plant response rating, Johnsongrass): 70% | pest or weed control at 125 g/ha (johnsongrass; Sorghum halepense, pre-emergence, 125 g ai/ha, scale 0 (no effect) to 100 (complete control), visual, 12 to 14 days, read-out: Plant response rating, Johnsongrass): 90% | pest or weed control at 250 g/ha (johnsongrass; Sorghum halepense, pre-emergence, 250 g ai/ha, scale 0-100, read-out: Plant response rating, Johnsongrass): 100% | pest or weed control at 500 g/ha (johnsongrass; Sorghum halepense, pre-emergence, 500 g ai/ha, scale 0 to 100 (0 no effect, 100 complete control), visual, 12 to 14 days, read-out: Plant response rating, Johnsongrass): 100% | pest or weed control at 500 g/ha (redroot pigweed; post-emergence, Postemergence, 500 g ai/ha, 0 to 100 scale, 0 no effect, 100 complete control, read-out: Pigweed plant response rating): 35% | pest or weed control at 2000 g/ha (redroot pigweed; post-emergence, Postemergence, 2000 g ai/ha, 0 to 100 scale, 0 no effect, 100 complete control, read-out: Plant response rating, Pigweed): 85% | pest or weed control at 2000 g/ha (redroot pigweed; pre-emergence, Preemergence, 2000 g ai/ha, visual rating, 0 to 100 scale (0 no effect, 100 complete control), read-out: Pigweed plant response rating): 100% | pest or weed control at 500 g/ha (redroot pigweed; pre-emergence, preemergence, 500 g ai/ha, visual injury, 0 to 100 scale (0 no effect, 100 complete control), read-out: Pigweed plant response rating): 100% | plant injury at 125 g/ha (rice; Oryza sativa, pre-emergence, 336 h, 125 g ai/ha, 0 = no effect, 100 = complete control, read-out: Rice plant response rating (0 to 100 scale)): 90% | plant injury at 500 g/ha (rice; Oryza sativa, pre-emergence, 336 h, 500 g ai/ha, visual rating, 0 = no effect, 100 = complete control, read-out: Plant response rating, Rice): 90% | Corn plant response rating (crop injury, 0 = no effect, 100 = complete kill) at 62 g/ha (corn; Zea mays, pre-emergence, 312 h, 62 g ai/ha, preemergence, scale 0 to 100): 10% | Corn plant response rating (crop injury, 0 = no effect, 100 = complete kill) at 125 g/ha (corn; Zea mays, pre-emergence, 312 h, 125 g ai/ha, scale 0 (no effect) to 100 (complete control), visual, 12 to 14 days): 45% | Corn plant response rating (crop injury, 0 = no effect, 100 = complete kill) at 250 g/ha (corn; Zea mays, pre-emergence, 312 h, 250 g ai/ha, scale 0-100): 60% | Corn plant response rating (crop injury, 0 = no effect, 100 = complete kill) at 500 g/ha (corn; Zea mays, pre-emergence, 312 h, 500 g ai/ha, scale 0 to 100 (0 no effect, 100 complete control), visual, 12 to 14 days): 70% | pest or weed control at 62 g/ha (eastern black nightshade; pre-emergence, 62 g ai/ha, preemergence, scale 0 to 100, read-out: Plant response rating, Nightshade): 100% | pest or weed control at 125 g/ha (eastern black nightshade; pre-emergence, 125 g ai/ha, scale 0 (no effect) to 100 (complete control), visual, 12 to 14 days, read-out: Plant response rating, Nightshade): 100% | pest or weed control at 250 g/ha (eastern black nightshade; pre-emergence, 250 g ai/ha, scale 0-100, read-out: Plant response rating, Nightshade): 100% | pest or weed control at 500 g/ha (eastern black nightshade; pre-emergence, 500 g ai/ha, scale 0 to 100 (0 no effect, 100 complete control), visual, 12 to 14 days, read-out: Plant response rating, Nightshade): 100% | pest or weed control at 500 g/ha (large crabgrass [2]; post-emergence, Postemergence, 500 g ai/ha, 0 to 100 scale, 0 no effect, 100 complete control, read-out: Crabgrass, Large plant response rating): 50% | pest or weed control at 2000 g/ha (large crabgrass [2]; post-emergence, Postemergence, 2000 g ai/ha, 0 to 100 scale, 0 no effect, 100 complete control, read-out: Plant response rating, Crabgrass, Large): 75% | pest or weed control at 2000 g/ha (large crabgrass [2]; pre-emergence, Preemergence, 2000 g ai/ha, visual rating, 0 to 100 scale (0 no effect, 100 complete control), read-out: Crabgrass, Large plant response rating): 100% | pest or weed control at 500 g/ha (large crabgrass [2]; pre-emergence, preemergence, 500 g ai/ha, visual injury, 0 to 100 scale (0 no effect, 100 complete control), read-out: Crabgrass, Large plant response rating): 85%

CCN1CCc2c(NC(=O)c3cc(C(C)(C)C)nn3CC)cccc2C1=O [Compound 63]
Plant response rating (0 = no effect, 100 = complete control), Crabgrass, Large (large crabgrass [1]; 62 g ai/ha, preemergence): 10 | Plant response rating, Crabgrass, Large (large crabgrass [1]; [3]): 85 | Plant response rating, Crabgrass, Large (large crabgrass [1]; [4]): 90 | Crabgrass, Large plant response rating (large crabgrass [1]; [5]): 100 | Plant response rating (0 = no effect, 100 = complete control), Johnsongrass (johnsongrass; 62 g ai/ha, preemergence): 30 | Plant response rating, Johnsongrass (johnsongrass; [3]): 60 | Plant response rating, Johnsongrass (johnsongrass; [4]): 75 | Johnsongrass plant response rating (johnsongrass; [5]): 100 | Plant response rating, Pigweed (redroot pigweed; [6]): 95 | Plant response rating, Pigweed (redroot pigweed; [7]): 100 | Pigweed plant response rating (redroot pigweed; [8]): 100 | Pigweed plant response rating (redroot pigweed; [9]): 100 | Plant response rating, Rice (rice; preemergence, 125 g ai/ha, 0 to 100 scale, 0 is no effect, 100 is complete control): 50 | Plant response rating (0 = no effect, 100 = complete control), Corn (corn; 62 g ai/ha, preemergence): 0 | Plant response rating, Corn (corn; [3]): 0 | Plant response rating, Corn (corn; [4]): 5 | Corn plant response rating (corn; [5]): 30 | Plant response rating (0 = no effect, 100 = complete control), Nightshade (eastern black nightshade; 62 g ai/ha, preemergence): 70 | Plant response rating, Nightshade (eastern black nightshade; [3]): 90 | Plant response rating, Nightshade (eastern black nightshade; [4]): 95 | Nightshade plant response rating (eastern black nightshade; [5]): 95 | Plant response rating, Crabgrass, Large (large crabgrass [2]; [6]): 40 | Plant response rating, Crabgrass, Large (large crabgrass [2]; [7]): 80 | Crabgrass, Large plant response rating (large crabgrass [2]; [8]): 90 | Crabgrass, Large plant response rating (large crabgrass [2]; [9]): 100

Reference: patent publication US20060069132A1, “Azolecarboxamide herbicides” (priority 2004, published 2006)
